# Assay results reported in US20220226473A1, “Nucleic acid nanocarrier drug and preparation method thereof, pharmaceutical composition and application thereof” (BAI YAO ZHI DA (BEIJING) NANOBIO TECHNOLOGY CO., LTD., priority 2018, published 2022).
# {Biotin} = biotin of the strand; {Cy5} = Cy5 fluorescent label
# B1: DNAh-Bio-EGFRapt-Cy5: targeted fluorescent carrier: DNA nanoparticle, strands SEQ ID NO: 172-174, 5′ biotin, EGFRapt, 3′ Cy5, thio-modified ends (nucleic acid)
# chain 1: CGCGCGCCCACGAGCGTTCCGGGCGCGCCTTAGTAACGTGCTTTGATGTCGATTCGACAGGAGGC
# chain 2: GCGCCCGGTTCGCCGCCAGCCGCCGC
# chain 3: GCGGCGGCAGGCGGCCATAGCCGTGGGCGCGCG
# modifications: chain 1: DNA, 5' {Biotin}, backbone not given here; chain 2: DNA, backbone not given here; chain 3: DNA, 3' {Cy5}, backbone not given here; first and last three bases thio-modified, DNA nanoparticle with EGFR aptamer, further chemistry not fully specified
# Tests used:
# SGC7901 cells = experiment: Cytotoxicity of RNAh-Biotin-quasar670-hdcp nanoparticles; format: cell-based
# MCF-7 cells [1] = experiment: Cytotoxicity of RNAh-Bio-670-THP and RNAh-Bio-670-DNR nanoparticles, CTG; format: cell-based, human; settings: MCF-7, 72 h, 200 nM
# Experimental: 3) Diluting a sample to be tested with the culture medium on the next day, respectively adding 200 nM to each sample, herein each sample has 4 replicate wells for replication.
# Samples to be tested: small molecular drug THP and RNAh-Bio-670-THP nanoparticles;
# 1) Except that it is the MCF-7 cells, the rest are the same as (III).
# SH-SY5Y cells [2] = experiment: Cytotoxicity in SH-SY5Y cells, CellTiter-Glo (Embodiment 8); format: cell-based
# Experimental: (1) Using the RPMI1640+10% FBS+1% PS medium to culture the SH-SY5Y cells at 37 DEG C and 5% CO2.
# (2) Collecting the cells, centrifuging at 800 rpm for 5 minutes, resuspending the medium, adjusting the cell concentration, and adding to the 96-well plate in a volume of 5000 cells per 90 μL.
# (3) Diluting a sample to be tested with the culture medium on the next day, respectively adding 200 nM to each sample, herein each sample has 4 replicate wells for replication.
# (4) After being cultured for 72 hours, adding 100 μL of the CTG reagent to each well, shaking for 2 minutes, and standing at the room temperature for 10 minutes, herein a whole process is protected from light.
# (5) Finally using Soft Max Pro5 software to read.
# HL60 cells = experiment: Cytotoxicity of RNAh-Bio-670-EPB nanoparticles, CellTiter-Glo; format: cell-based
# Experimental: Preparing a freshly prepared reagent into a corresponding volume container, and adding PBS to be quantified to 10 μM.
# Cells are cultured at 37 DEG C. and 5% CO2 in a corresponding basal medium in which 10% FBS and 1% PS are respectively added. The cell density used in the experiment is above 80%. The cells are collected, and centrifuged at 1000 rpm for 4 minutes, the medium is resuspended, the cell concentration is adjusted, and it is added to the 96-well plate in a volume of 3000 cells per 50 μL, and each group has 3 replicate wells.
# After 24 hours, the compound solution is transferred to each well by 50 μL/well.
# The above cells after administration are cultured for 72 hours under a condition of 37 DEG C and 5% CO2.
# The well plate is brought to a room temperature in advance and stands for 30 minutes, 100 μL of a CellTiter-Glo® reagent is added to each well of the well plate and mixed for 2 minutes on a shaker to promote cell lysis. The Perkin Elmer Envision 2104 Multilabel Reader is used to read values and the values are recorded.
# The acquired experiment data is analyzed and processed by using excel software, and GraphPad Prism 5 software is used for curve fitting analysis.
# MCF-7 cells [3] = experiment: Cytotoxicity of DNAh-Bio-EGFRapt-Cy5-EPB nanoparticles, CellTiter 96 AQueous One Solution; format: cell-based, human
# Excerpt: GraphPad Prism5.0 software is used to process data graphically. […] A calculation formula of the cell survival rate is as follows, the IC50 may be automatically calculated in the GraphPad Prism 5.0. […]
# NCI-H1975 cells [4] = experiment: as above; format: cell-based; settings: for IC50: NCI-H1975, 96 hours
# Experimental: GraphPad Prism5.0 software is used to process data graphically. In order to calculate the IC50, “W”-shaped non-linear regression analysis is performed on the data to match a suitable dosage-effect curve. A calculation formula of the cell survival rate is as follows, the IC50 may be automatically calculated in the GraphPad Prism 5.0.
# MOLT4 cells = experiment: Cytotoxicity of RNAh-Bio-670-MTX nanoparticles, CTG; format: cell-based, human; settings: maximum administration concentration 5 μm
# Experimental: 1) Using the RPMI1640+10% FBS+1% PS medium to culture the MOLT4 cells at 37 DEG C. and 5% CO2.
# 2) Collecting the cells, centrifuging at 800 rpm for 5 minutes, resuspending the medium, adjusting the cell concentration, and adding to the 96-we plate in a volume of 5000 cells per 90 μL. […]
# 4) After being cultured for 72 hours, adding 100 μL of the CTG reagent to each well, shaking for 2 minutes, and standing at the room temperature for 10 minutes, herein a whole process is protected from light.
# 5) Finally using Soft Max Pro5 software to read.
# SH-SY5Y cells [5] = experiment: Cytotoxicity of RNAh-Biotin-quasar670-aspirin nanoparticles, CTG kit; format: cell-based; settings: highest administration concentration 10 μM
# Experimental: Experiment purpose: an effect of a compound on proliferation of a target tumor cell line is researched.
# Experiment design: the compound is diluted in 8 concentration gradients and sequentially added to the target tumor cell line and incubated for 72 hours, the CTG kit is used to detect the effect of the compound on the cell proliferation.
# HepG2 cells = experiment: Cytotoxicity of RNAh-Biotin-quasar670-flu nanoparticles; format: cell-based
# Experimental: I. Samples to be tested: small molecular […] chemical drug and RNAh-Biotin-quasar670-flu nanoparticles.
# In order to further determine that the RNA nanoparticles without carrying the […] have no apparent cytotoxicity to the HepG2 cells, the inventor further designs a toxicity experiment of the RNAh-Biotin-FAM (FAM is a fluorescent marker), a targeted fluorescent carrier, to the HepG2 cells (a drug administration gradient in the experiment is as follows: 100 μM, 31.6 μM, 10 μM, 3.16 μM, 1 μM, 316 nM, 100 nM, 31.6 nM, 10 nM, and 0 (10% PBS)), the results thereof are shown in Table 134 and FIG. 95.
# MCF-7 cells [6] = experiment: Flow cytometry binding of DNAh-Bio-EGFRapt-Cy5-EPB nanoparticles; format: cell-based, human; settings: 2 hours
# Experimental: (§1) MCF-7 (source: ATCC, and article number: HTB-22), NCI-H1975 (source: ATCC, and article number: CRL-5008); a culture medium is MEM+10% FBS, and culture conditions are 37 DEG C., 5% CO2, and saturated humidity.
# (§2) 1. Adjusting a cell state to a logarithmic growth phase, changing the medium to a medium without biotin and folic acid, and incubating overnight in the incubator at 37 DEG C;
# (§3) 2. dissolving the substances to be tested and preparing the to-be-tested substance stock solution;
# (§4) 3. digesting and collecting the single-cell suspension and counting, adjusting the cell density to 2×10^5/mL, planting 1 mL/well into the 24-well plate;
# (§5) 4. respectively adding the substances to be tested to the corresponding cell wells, herein the final concentration is 2 μM, shaking and mixing uniformly;
# (§6) 5. placing the cell plate in the incubator at 37 DEG C. and incubating for 2 hours;
# (§7) 6. after the incubation, pancreatin-digesting and collecting the cell suspension;
# (§8) 7. centrifugally collecting a cell precipitation, and washing twice with the PBS;
# (§9) 8. finally, resuspending the cell precipitation with 300 μL of the PBS, and performing a flow cytometric on-machine detection;
# (§10) 9. fluorescence carrier or epirubicin detection channels: excitation light wavelength: 488 nm, and emission light channel: 560 nm; and […]
# NCI-H1975 cells [7] = experiment: as above; format: cell-based; settings: 2 hours
# Experimental: as §1, §2, §3, §4, §5, §6, §7, §8, §9, §10
# SGC-7901 cells [8] = experiment: Flow cytometer binding of pirarubicin-loaded DNA nanoparticles; format: cell-based, human; settings: SGC-7901, 2 μM, 2 hours
# Experimental: (§11) 1). Adjusting a cell state to a logarithmic growth phase, changing the medium to a medium without biotin and folic acid, and incubating overnight in the incubator at 37 DEG C;
# (§12) 2). dissolving the substances to be tested and preparing the to-be-tested substance stock solution;
# (§13) 3). digesting and collecting the single-cell suspension and counting, adjusting the cell density to 2×10^5/mL, planting 1 mL/well into the 24-well plate;
# (§14) 4). respectively adding the substances to be tested to the corresponding cell wells, herein the final concentration is 2 μM, shaking and mixing uniformly;
# (§15) 5). placing the cell plate in the Incubator at 37 DEG C. and Incubating for 2 hours;
# (§16) 6). after the incubation, pancreatin-digesting and collecting the cell suspension;
# (§17) 7). centrifugally collecting a cell precipitation, and washing twice with the PBS;
# (§18) 8). finally, resuspending the cell precipitation with 300 μL of the PBS, and performing a flow cytometric on-machine detection; herein detection channels of fluorescence carrier or pirarubicin targeted drug: excitation light wavelength: 488 nm, and emission light channel: 560 nm; and […]
# SKOV3 cells [9] = experiment: as above; format: cell-based, human; settings: SKOV3, 2 μM, 2 hours
# Experimental: as §11, §12, §13, §14, §15, §16, §17, §18
# SGC-7901 cells [10] = experiment: Cytotoxicity of DNAh-Biotin-EGFRapt-Cy5-THP nanoparticles; format: cell-based, human; settings: SGC-7901
# Experimental: (§19) 2) adjusting the cell density to 2.22×10^4/mL with a growth medium:
# (§20) 3) planting 90 μL/well of cell suspension into the 96-well plate, herein the number of cells per well in the plate is 2000;
# (§21) 4) placing the planted cell plate in the incubator at 37 DEG C. and incubating overnight;
# (§22) 5) performing 3.16-fold gradient dilution on the compound at 9 concentration points;
# (§23) 6) taking out the cell culture plate, and adding 10 μL/well of 10× concentration drug working solution to the corresponding wells of the cell culture plate, herein three replicate holes are made for each concentration, and the final drug action concentration is shown in the table below.
# (§24) 7) placing the cell culture plate in the incubator and continuously incubating for 96 hours;
# (§25) 8) placing the CellTiter 96@D AQueous One Solution reagent at the room temperature and thawing for 90 minutes or thawing in a water bath at 37 DEG C., and then equilibrating at the room temperature for 30 minutes;
# (§26) 9) adding 20 μL/well of the CellTiter 96® AQueous One Solution reagent to the cell culture plate;
# (§27) 10) placing the cell culture plate in the incubator at 37 DEG C. and continuously incubating for 3 hours;
# (§28) 11) using the microplate reader to read a OD490 value of each well in the cell plate; and
# (§29) 12) data processing and analysis.
# (§30) GraphPad Prism5.0 software is used to process data graphically. In order to calculate the IC50, […] non-linear regression analysis is performed on the data to match a suitable dosage-effect curve. A calculation formula of the cell survival rate is as follows, the IC50 may be automatically calculated in the GraphPad Prism 5.0.
# (§31) Cell survival rate (%)=(ODtest well−ODblank control)/(ODnegative control−ODblank control)×100%.
# (§32) II. Experiment Device and Method Same as (II)
# SKOV3 cells [11] = experiment: as above; format: cell-based, human; settings: SKOV3
# Experimental: as §19, §20, §21, §22, §23, §24, §25, §26, §27, §28, §29, §30, §31, §32
# [12] = administration concentration 5 μM
molecule,measurement,setting,value
CC[C@@]1(O)C(=O)OCc2c1cc1n(c2=O)Cc2cc3cc(O)ccc3nc2-1 [10-hydroxycamptothecin],Cell inhibition rate (%) when administration concentration is 5 μM,"SGC7901 cells; SGC7901, 72 h, 5 μM",75.43%
same,"cell inhibition rate (%), SGC7901 cells",SGC7901 cells; [12],75.43%
COc1cccc2c1C(=O)c1c(O)c3c(c(O)c1C2=O)C[C@@](O)(C(=O)CO)C[C@@H]3O[C@H]1C[C@H](N)[C@H](O[C@@H]2CCCCO2)[C@H](C)O1 [Pirarubicin (THP)],cell survival rate (%),MCF-7 cells [1],13.85%
"Nc1c2c(nc3ccccc13)CCCC2 [Tacrine, tacrine]",cell proliferation rate (%),"SH-SY5Y cells [2]; 200 nM, 72 h",39.75%
COc1cccc2c1C(=O)c1c(O)c3c(c(O)c1C2=O)C[C@@](O)(C(C)=O)C[C@@H]3O[C@H]1C[C@H](N)[C@H](O)[C@H](C)O1 [Daunorubicin (DNR)],cell survival rate (%),MCF-7 cells [1],17.33%
"COc1cccc2c1C(=O)c1c(O)c3c(c(O)c1C2=O)C[C@@](O)(C(=O)CO)C[C@@H]3O[C@H]1C[C@H](N)[C@@H](O)[C@H](C)O1 [EPB, epirubicin]",IC50,"HL60 cells; Homo sapiens, HL-60, 72 hours, read-out: IC50, HL60 cell proliferation",69.8 nM
same,inhibition at 5 µM,"HL60 cells; Homo sapiens, HL-60, concentration 5 μM, 72 hours, read-out: inhibition rate on HL60 cells",99.2%
same,toxicity to MCF-7 cells,MCF-7 cells [3]; 96 hours,toxic to the MCF-7 cells
same,IC50,"MCF-7 cells [3]; Homo sapiens, MCF7, MCF-7, 96 hours",84.7 nM
same,toxicity to NCI-H1975 cells,NCI-H1975 cells [4]; 96 hours,toxic to the NCI-H1975 cells
same,IC50,NCI-H1975 cells [4]; Homo sapiens,30.6 nM
N.N.[Cl][Pt][Cl] [Cisplatin],IC50,SH-SY5Y cells [2]; highest administration concentration 5 μM,510 nM
same,inhibition rate to the HL60 cells,HL60 cells; highest administration concentration 10 μM,99.96%
same,inhibition rate to the MOLT4 cell proliferation,MOLT4 cells,99.94%
same,inhibition rate to the SH-SY5Y cells,SH-SY5Y cells [5],99.81%
O=c1[nH]cc(F)c(=O)[nH]1 [pentafluorouracil],Cell inhibition rate (%) when administration concentration is 5 μM,"HepG2 cells; HepG2, 72 h, 5 μM",39.02%
same,"cell inhibition rate (%), HepG2 cells",HepG2 cells; [12],39.02%
B1,binding rate to MCF-7 cells,MCF-7 cells [6]; 2 μM,100%
same,Binding rate (%),"MCF-7 cells [6]; MCF-7, 2 μM",99.97%
same,binding rate to NCI-H1975 cells,NCI-H1975 cells [7]; 2 μM,100%
same,Binding rate (%),"NCI-H1975 cells [7]; NCI-H1975, 2 μM",100%
same,Binding rate (%),SGC-7901 cells [8],99.99%
same,Binding rate (%),SKOV3 cells [9],100%
same,IC50,NCI-H1975 cells [4],> 316 nM
same,IC50,SGC-7901 cells [10],> 316 nM
same,IC50,SKOV3 cells [11],> 1000 nM
